From patent publication US6355663B1, “Substituted isoxazolylthiophene compounds” (Taisho Pharmaceutical Co., Ltd., priority 1998, dated 2002)

Key:
[1] = test system: osteoblasts derived from the parietal bone of rat fetus; assay: Enhancing activity for the induction of alkaline phosphatase production in osteoblasts; assay type: cell-based; settings: test compound 2.5 μg/ml; compared with activity without the test compound; rat fetal parietal bone osteoblasts
Procedure: The compounds of the present invention were determined for an enhancing activity for the induction of alkaline phosphatase production in osteoblasts derived from the parietal bone of rat fetus. Enhancing activities for the induction of alkaline phosphatase production at a concentration of the test compound of 2.5 μg/ml were 195% for Example 1, 155% for Example 3, 187% for Example 7 and 134% for Example 9, respectively, when compared with those activities without the test compounds.

[2] = test system: osteoblasts derived from the parietal bone of rat fetus; assay: Enhancing activity for the nodule induction in osteoblasts; assay type: cell-based; settings: rat fetal parietal bone osteoblasts
Procedure: The compounds of the invention were determined for an enhancing activity for the nodule induction in osteoblasts derived from the parietal bone of rat fetus. Results were 342% at 1.0 μg/ml for Example 1, 501% at 2.5 μg/ml for Example 3, 576% at 2.5 μg/ml for Example 7 and 550% at 2.5 μg/ml for Example 9, respectively.

SMILES | Enhancing activity for the induction of alkaline phosphatase production [1] | Enhancing activity for the nodule induction ([2]; at 1.0 μg/ml) | melting point | Enhancing activity for the nodule induction ([2]; at 2.5 μg/ml)
CSc1sc(C(N)=O)c(C)c1-c1oncc1C [Example 1, 3,4′-Dimethyl-4-(isoxazol-5-yl)-5-(methylthio)thiophene-2-carboxamide] | 195% | 342% |  | 
CCc1c(C(N)=O)sc(SC)c1-c1oncc1C [Example 3, 3-Ethyl-4-(4-methylisoxazol-5-yl)-5-(methylthio)thiophene-2-carboxamide] | 155% |  | 93.5 to 94.5 °C | 501%
CCc1cnoc1-c1c(SC)sc(C(N)=O)c1C [Example 7, 4-(4-Etkylisoxazol-5-yl)-3-methyl-5-(methylthio)-thiophene-2-carboxamide] | 187% |  |  | 576%
CSc1sc(C(N)=O)c(C)c1-c1oncc1C(C)C [Example 9] | 134% |  |  | 550%
